In patent US20210198277A1, “AMINE-SUBSTITUTED ARYL OR HETEROARYL COMPOUNDS” (Epizyme, Inc., priority 2016, published 2021):
Read-outs that look alike come from different tables or passages of the source.

Legend:
[1] = target: T1, human EHMT2 913-1193 (Homo sapiens, UniProt Q96KQ7); assay: EHMT2 enzyme assay on histone peptide substrate (EHMT2 PEP); format: biochemical
T1 construct: recombinant purified human EHMT2 913-1193, Viva; purchased Viva
T1 sequence (Q96KQ7 913-1193): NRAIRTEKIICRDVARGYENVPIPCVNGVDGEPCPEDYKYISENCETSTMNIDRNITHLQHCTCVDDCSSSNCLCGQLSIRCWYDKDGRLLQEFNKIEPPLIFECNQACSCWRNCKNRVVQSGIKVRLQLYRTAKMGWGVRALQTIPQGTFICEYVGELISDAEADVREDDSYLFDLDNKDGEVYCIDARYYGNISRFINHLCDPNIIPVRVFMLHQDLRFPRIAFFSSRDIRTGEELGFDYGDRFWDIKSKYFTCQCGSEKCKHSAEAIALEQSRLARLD
Method in brief: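 Compounds were tested as 3-fold dilutions, 10 points from a 50 μM final top (2% DMSO), after 30-min preincubation with 0.031 nM enzyme in Bicine buffer pH 7.5. Transfer of ^3H-methyl from ^3H-SAM to biotinylated histone peptide ran 60 min at room temperature and was detected by streptavidin Flashplate scintillation.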

[2] = target: T2, EHMT1 (Homo sapiens, UniProt Q9H9B1); assay: EHMT1 enzyme assay on peptide substrate (EHMT1 PEP); format: biochemical
T2 sequence (Q9H9B1 1-1298): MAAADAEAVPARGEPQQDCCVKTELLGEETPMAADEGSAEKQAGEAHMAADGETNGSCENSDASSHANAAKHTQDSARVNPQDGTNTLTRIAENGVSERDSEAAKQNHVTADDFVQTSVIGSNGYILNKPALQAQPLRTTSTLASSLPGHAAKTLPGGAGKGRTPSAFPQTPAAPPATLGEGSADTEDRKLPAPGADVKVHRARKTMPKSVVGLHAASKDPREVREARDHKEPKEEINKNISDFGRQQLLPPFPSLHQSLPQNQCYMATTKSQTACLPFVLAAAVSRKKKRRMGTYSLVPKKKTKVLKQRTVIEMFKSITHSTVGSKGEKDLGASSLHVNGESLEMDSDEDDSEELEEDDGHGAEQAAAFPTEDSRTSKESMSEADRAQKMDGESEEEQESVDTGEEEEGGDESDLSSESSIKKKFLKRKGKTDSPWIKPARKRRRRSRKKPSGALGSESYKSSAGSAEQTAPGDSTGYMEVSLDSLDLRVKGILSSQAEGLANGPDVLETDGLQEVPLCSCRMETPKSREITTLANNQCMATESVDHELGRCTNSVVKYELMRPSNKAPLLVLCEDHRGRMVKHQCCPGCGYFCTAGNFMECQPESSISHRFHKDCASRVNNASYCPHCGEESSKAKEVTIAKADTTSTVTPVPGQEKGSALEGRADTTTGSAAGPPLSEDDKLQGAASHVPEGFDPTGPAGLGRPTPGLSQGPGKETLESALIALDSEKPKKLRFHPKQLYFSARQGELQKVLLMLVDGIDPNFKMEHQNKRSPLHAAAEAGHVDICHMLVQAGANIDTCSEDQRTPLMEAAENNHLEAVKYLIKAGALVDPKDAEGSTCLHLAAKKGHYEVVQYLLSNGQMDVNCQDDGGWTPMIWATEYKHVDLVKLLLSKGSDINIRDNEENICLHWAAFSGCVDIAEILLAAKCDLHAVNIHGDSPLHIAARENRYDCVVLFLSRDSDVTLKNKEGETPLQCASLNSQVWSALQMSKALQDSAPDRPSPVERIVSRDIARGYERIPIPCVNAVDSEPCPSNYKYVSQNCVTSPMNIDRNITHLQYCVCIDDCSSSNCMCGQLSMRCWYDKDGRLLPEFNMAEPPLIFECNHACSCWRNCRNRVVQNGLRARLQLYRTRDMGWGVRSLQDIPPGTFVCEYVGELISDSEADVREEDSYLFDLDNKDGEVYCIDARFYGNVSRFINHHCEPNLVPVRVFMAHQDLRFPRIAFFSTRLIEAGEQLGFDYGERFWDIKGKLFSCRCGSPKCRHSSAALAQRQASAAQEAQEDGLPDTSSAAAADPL

[3] = recombinant human EHMT2 913-1193, histone H3 1-15 peptide, balanced conditions, read-out: EHMT2 PEP (IC50 μM)
[4] = Table VII, read-out: EHMT2 PEP IC50
[5] = Table VII, read-out: EHMT1 PEP IC50

Row | SMILES | IC50 [1, 3] | IC50 ([2]; read-out: EHMT1 PEP (IC50 μM)) | IC50 [1, 4] | IC50 [2, 5]
1 | CNc1cc(C)nc(Nc2ccc(OC)c(OCCCCN(C)C)c2)n1 [Compound 502] | 1 to 10 µM | 0.1 to 1 µM | – | –
2 | CNc1cc(C)nc(Nc2ccc(OC)c(OCCC3CCN(C)C3)c2)n1 (stereo not drawn) [Compound 503] | 1 to 10 µM | 1 to 10 µM | – | –
3 | CNc1cc(C)nc(Nc2ccc(OC)c(OCCCN3CCCC3C)c2)n1 (stereo not drawn) [Compound 504, N^2-(4-methoxy-3-(3-(2-methylpyrrolidin-1-yl)propoxy)phenyl)-N^4,6-dimethylpyrimidine-2,4-diamine] | 0.1 to 1 µM | 0.1 to 1 µM | – | –
4 | CNc1cc(C)nc(Nc2ccc(OC)c(OCCCN3CC4CC4C3)c2)n1 (stereo not drawn) [Compound 506] | < 0.1 µM | < 0.1 µM | – | –
5 | COc1cnc(Nc2nccc3[nH]ccc23)cc1OCCCN1CC2CC2C1 (stereo not drawn) [Compound 507] | < 0.1 µM | < 0.1 µM | – | –
6 | CNc1cc(C)nc(Nc2ccc(OC)c(OCCC3CN(C)C3)c2)n1 [Compound 508] | 1 to 10 µM | 1 to 10 µM | – | –
7 | CNc1cc(Nc2cc(OCCCN3CC4CC4C3)c(OC)cn2)nc(C)c1F (stereo not drawn) [Compound 509] | 0.1 to 1 µM | < 0.1 µM | – | –
8 | CNc1cc(C)nc(Nc2ccc(OC)c(OCC3CN(C4CC4)C3)c2)n1 [Compound 510] | 0.1 to 1 µM | < 0.1 µM | – | –
9 | CNc1cc(C)nc(Nc2cnc(OC)c(OC[C@@H]3CCN(C4CC4)C3)c2)n1 [Compound 512] | < 0.1 µM | < 0.1 µM | – | –
10 | CNc1cc(C)nc(Nc2cnc(OC)c(OCCCN3CC4CC4C3)c2)n1 (stereo not drawn) [Compound 514] | 0.1 to 1 µM | < 0.1 µM | – | –
11 | CCc1ncc(Nc2nc(C)cc(NC)n2)cc1OCCCN1CCCC1 [Compound 515] | 1 to 10 µM | 1 to 10 µM | – | –
12 | CNc1cc(C)nc(Nc2cnc(C3CC3)c(OCCCN3CCCC3)c2)n1 [Compound 516] | 1 to 10 µM | 1 to 10 µM | – | –
13 | CNc1cc(C)nc(Nc2ccc(OC)c(OCC3CCCN(C4CC4)C3)c2)n1 (stereo not drawn) [Compound 517a] | 0.1 to 1 µM | 0.1 to 1 µM | – | –
14 | CNc1cc(C)nc(Nc2ccc(OC)c(OC[C@H]3CCCN(C4CC4)C3)c2)n1 [Compound 517b] | 0.1 to 1 µM | 0.1 to 1 µM | – | –
15 | CNc1nc(C2CCCC2)c2cc(OC)c(OCCCN3CCCC3)cc2n1 [Compound 518, 4-cyclopentyl-6-methoxy-N-methyl-7-(3-(pyrrolidin-1-yl)propoxy)quinazolin-2-amine] | 1 to 10 µM | 1 to 10 µM | – | –
16 | CNc1nc(C2CCN(C(C)=O)CC2)c2cc(OC)c(OCCCN3CCCC3)cc2n1 [Compound 519] | 0.1 to 1 µM | 1 to 10 µM | – | –
17 | CNc1nc(C2CCNCC2)c2cc(OC)c(OCCCN3CCCC3)cc2n1 [Compound 520] | < 0.1 µM | < 0.1 µM | – | –
18 | CNc1nc(C2CCOCC2)c2cc(OC)c(OCCCN3CCCC3)cc2n1 [Compound 521] | 1 to 10 µM | 1 to 10 µM | – | –
19 | CNc1nc(C2=CCOCC2)c2cc(OC)c(OCCCN3CCCC3)cc2n1 [Compound 522] | 1 to 10 µM | 1 to 10 µM | – | –
20 | CNc1nc(C2CCCCC2)c2cc(OC)c(OCCCN3CCCC3)cc2n1 [Compound 523, 4-cyclohexyl-6-methoxy-N-methyl-7-(3-(pyrrolidin-1-yl)propoxy)quinazolin-2-amine] | 1 to 10 µM | 1 to 10 µM | – | –
21 | CNc1cc(C2CCOCC2)c2cc(OC)c(OCCCN3CCCC3)cc2n1 [Compound 524, 6-methoxy-N-methyl-4-(oxan-4-yl)-7-[3-(pyrrolidin-1-yl)propoxy]quinolin-2-amine] | < 0.1 µM | < 0.1 µM | – | –

Row | SMILES | IC50 [1, 3] | IC50 ([2]; read-out: EHMT1 PEP (IC50 μM)) | IC50 [1, 4] | IC50 [2, 5]
22 | CNc1nc(C2CCN(C(C)C)CC2)c2cc(OC)c(OC[C@@H]3CCN(C4CC4)C3)cc2n1 [Compound 526] | < 0.1 µM | < 0.1 µM | – | –
23 | COc1cc2c(C3CCN(C)CC3)nc(N3CCCC3)nc2cc1OCCCN1CCCC1 [Compound 527] | < 0.1 µM | < 0.1 µM | – | –
24 | COc1cc2c(C3CCN(C)CC3)nc(N3CCC(F)(F)CC3)nc2cc1OCCCN1CCCC1 [Compound 528] | 0.1 to 1 µM | 0.1 to 1 µM | – | –
25 | COc1cc2c(C3CCN(C)CC3)nc(NC3CCCC3)nc2cc1OCCCN1CCCC1 [Compound 529] | < 0.1 µM | < 0.1 µM | – | –
26 | CNc1nc(C2CCN(C(C)C)CC2)c2cc(OC)c(OCCCN3CCCC3)cc2n1 [Compound 530] | < 0.1 µM | < 0.1 µM | – | –
27 | CNc1nc(C2CCN(C)CC2)c2cc(OC)c(OCCCN3CC4CC4C3)cc2n1 (stereo not drawn) [Compound 532] | < 0.1 µM | < 0.1 µM | – | –
28 | CNc1nc(C2CCN(CCO)CC2)c2cc(OC)c(OCCCN3CCCC3)cc2n1 [Compound 533] | < 0.1 µM | < 0.1 µM | – | –
29 | CNc1nc(C2CC(C)(C)NC(C)(C)C2)c2cc(OC)c(OCCCN3CCCC3)cc2n1 [Compound 534] | 1 to 10 µM | 1 to 10 µM | – | –
30 | CNc1cc(C2CCN(C)CC2)c2cc(OC)c(OCCCN3CCCC3)cc2n1 [Compound 535] | < 0.1 µM | < 0.1 µM | – | –
31 | COc1cc2c(C3CCN(C)CC3)cc(C)nc2cc1OCCCN1CCCC1 [Compound 536] | < 0.1 µM | < 0.1 µM | – | –
32 | CCCCNc1nccc(NC)n1 [Compound 543, N^2-butyl-N^4-methylpyrimidine-2,4-diamine] | > 10 µM | > 10 µM | – | –
33 | CNc1cc(C)nc(Nc2ccc(OC)c(OC[C@@H](O)CN3CCCC3)c2)n1 [Compound 1044] | – | – | 0.1 to 1 µM | 0.1 to 1 µM
34 | CNc1cc(C)nc(Nc2ccc(OC)c(OC[C@H](O)CN3CCCC3)c2)n1 [Compound 1045] | – | – | < 0.1 µM | < 0.1 µM
35 | CNc1ccnc(Nc2ccc(OC)c(OC[C@@H](O)CN3CCC3)c2)n1 [Compound 1046] | – | – | 1 to 10 µM | 1 to 10 µM
36 | CNc1cc(C2CCOCC2)c2cc(OC)c(OC[C@H](O)CN3CCC3)cc2n1 [Compound 1108] | – | – | < 0.1 µM | < 0.1 µM
37 | CNc1cc(C)nc(Nc2ccc(OC)c(CNCCNC3CCC3)c2)n1 [Compound 1109] | – | – | 1 to 10 µM | 0.1 to 1 µM
38 | CNc1cc(C)nc(Nc2cnc(OC)c(CNCCN3CCC3)c2)n1 [Compound 1110] | – | – | 0.1 to 1 µM | < 0.1 µM
39 | CNc1cc(C2CCOCC2)c2cc(OC)c(CNCCN3CCCC3)cc2n1 [Compound 1111] | – | – | < 0.1 µM | < 0.1 µM
40 | CNc1cc(C)nc(Nc2ccc(OC)c(OC[C@H](O)CN(C)C)c2)n1 [Compound 1112] | – | – | 0.1 to 1 µM | < 0.1 µM
41 | CCN(C)C[C@@H](O)COc1cc(Nc2nc(C)cc(NC)n2)ccc1OC [Compound 1113] | – | – | 0.1 to 1 µM | < 0.1 µM
42 | CNc1cc(C)nc(Nc2ccc(C)c(C(=O)NCc3ccon3)c2)n1 [Compound 1114] | – | – | > 10 µM | > 10 µM
